Reference: patent US5206223A, “Method for inhibiting heparanase activity” (Yeda Research and Development Co. Ltd., priority 1986, dated 1993)

Experiments:
rheumatoid arthritis = experiment: Treatment of patients with rheumatoid arthritis; format: in vivo, human; conditions: about 300-500 units daily for 1 month, three patients
Description: As DTH reactions to self antigens are involved in autoimmune diseases, we have begun to test low dose heparin (about 300-500 units daily) in patients with rheumatoid arthritis.

lymphocytes = conditions: 17-35 mg/kg/rat; cited from earlier work
[1] = rat, in vivo, 10 mg/kg
DTH reaction = experiment: Adoptively transferred DTH to OX: ear swelling and 51Cr I-LNC migration to the ear; format: in vivo, mice; conditions: for DTH ear swelling (FIG. 6 left): I-LNC transferred intravenously, 24 h
Method: I-LNC were obtained from OX sensitized mice (groups A-C) and naive LNC from unsensitized mice (group D). The LNC were transferred intravenously to naive recipients that were treated (groups B-C) or untreated (groups A,D) with heparin (5 μg or 20 μg) injected 18 h and 1 h prior to cell transfer and 20 h after cell transfer. DTH ear swelling was elicited by OX at the time of cell transfer and measured 24 h later.
Right: Heparin inhibits cell migration to DTH challenge site. The experiment was done as described in FIG. 6 (left), except that I-LNC were radiolabeled with ^51 Cr prior to cell transfer into naive recipient mice. The accumulation of I-LNC in the OX challenged ears is indicated as the ^51 Cr (cpm/ear).
Mice were sensitized to 4-ethoxymethylene-2-phenyl oxazolone (OX) by painting their skins twice at 5 day intervals with about 0.1 ml of 3% OX in a vehicle of 4:1 acetone:olive oil (by volume). Their immunized draining lymph node cells (I-LNC) were then transfered (5×10^7) to recipient mice intravenously. The ability of the I-LNC to reach the site of antigen and produce a DTH reaction was assayed by challenging the recipient mice 1 hr after I-LNC transfer with 0.02 ml of 0.5% OX painted on the ear. DTH was ascertained by measuring the thickness of the ears 24 hrs later with an engineers micrometer.
The ability of the transfered I-LNC to reach the ears was tested by labeling the I-LNC before transfer with radioactive ^51 Cr (10^7 cells/ml incubated with 0.1 mCi ^51 Cr sodium chromate and washed) and measuring the amount cpm reaching the ears at the time of DTH.

adjuvant arthritis [2] = conditions: 1000 U/rat; cited from earlier work
heparanase = experiment: Heparanase activity of I-LNC from heparin-treated OX-immunized mice; conditions: 5 μg per injection in vivo, I-LNC incubated 48 h with labeled ECM
Method: Mice were immunized with OX on days 0 and 5. Some of the mice were treated with heparin (5 μg or 25 μg per injection) 18 h before and 2, 10 and 20 h after the day 5 immunization with OX. On day 6, the I-LNC were removed and tested for heparanase activity by incubation for 48 h with labeled ECM. Heparan sulfate degradation products are shown for I-LNC from the following groups of mice: No heparin; 25 μg heparin X; 5 μg heparin-0. The LNC of control mice not immunized to OX had no heparanase activity (not shown).
To learn if these effects were associated with inhibition of endogenous heparanase, we treated mice with high (25 μg) or low (5 μg) doses of heparin, sensitized them to OX and tested their I-LNC for heparanase activity in vitro. […] Thus, treatment with 5 μg of heparin in vivo caused a substantial decrease of enzyme activity in sensitized lymphocytes.

DTH skin response = conditions: human, in vivo
renal allograft = conditions: subanticoagulant s.c. doses, 5000 U daily; cited from earlier work
skin allografts = experiment: Skin allograft survival (SJL/J skin on (BALB/c×C57BL/6)F1 mice); format: in vivo; conditions: 0.05 mg/kg daily
Method: FIG. 1. Treatment with heparin (0.05 mg/kg) prevents rejection of skin allografts. Mice of hybrid strain (BALB/c×C57BL/6)F1 were grafted with skin from allogeneic SJL/J mice. The mice (20 per group) were treated daily with subcutaneous injections of saline (squares) or with heparin ("Leo", 0.05 mg/kg; diamonds) and scored for skin graft survival. Median survival for the control group was 10 days while that for the heparin treated group was 24 days.
FIG. 2. Treatment with N-desulfated, N-acetylated heparin (10 mg/kg) prevents rejection of skin allografts. Mice were grafted as described for FIG. 1 and treated daily with saline (squares) or N-desulfated, N-acetylated heparin (10 mg/kg; diamonds). The median survival of the skin allograft in the control group was 10 days while that in the treated group was 20 days.
The median survival time of the skin grafts on control mice treated with saline was […] while that on mice treated with 0.05 mg/kg daily of heparin was 26 days with maximal survival to 32 days.

adjuvant arthritis [3] = experiment: Adjuvant arthritis induced with M. tuberculosis; format: in vivo, Lewis rats; conditions: for Adjuvant arthritis maximum clinical score: scale 0-16
[4] = 0.001 mg s.c. once daily for 5 days from day 9
[5] = 0.005 mg s.c. once daily for 5 days from day 9
[6] = 0.01 mg s.c. once daily for 5 days from day 9
[7] = 0.02 mg s.c. once daily for 5 days from day 9

Substance: heparin
- Clinical improvement of severe rheumatoid arthritis (rheumatoid arthritis): all 3 were improved
- Emigration of lymphocytes from the circulation (lymphocytes): inhibit the emigration of lymphocytes from the circulation
- Anti-coagulant effect (prothrombin time) [1]: increase in the prothrombin time
- Accumulation of 51Cr I-LNC in OX challenged ears (cpm/ear, FIG. 6 right) (DTH reaction; 5 μg per injection): decreased cpm
- DTH ear swelling (FIG. 6 left) (DTH reaction; 5 μg per injection): decreased ear swelling
- Accumulation of 51Cr I-LNC in OX challenged ears (cpm/ear, FIG. 6 right) (DTH reaction; 20 μg per injection): did not inhibit
- DTH ear swelling (FIG. 6 left) (DTH reaction; 20 μg per injection): did not inhibit
- Severity of rat adjuvant arthritis (adjuvant arthritis [2]): enhanced the severity of the rat adjuvant arthritis
- Heparanase activity of I-LNC (FIG. 7) (heparanase): lacked heparanase activity
- Effect on the DTH response (FIG. 9) (DTH skin response): did not have a significant inhibitory effect
- Extent of induration (DTH skin response): decreased similarly
- Mean diameter of erythema to mumps during treatment (DTH skin response): 13.6 mm
- Mean diameter of erythema to tetanus toxoid during treatment (DTH skin response): 16.8 mm
- Reversibility of the effect on the DTH response (FIG. 9) (DTH skin response): transient
- Volunteers with significantly decreased DTH response to mumps (DTH skin response; sc): 11/12
- Volunteers with significantly decreased DTH response to tetanus (DTH skin response; sc): 10/12
- Early renal allograft function and graft survival (renal allograft): no effect on early graft function or graft survival
- Maximal survival of skin allograft (skin allografts): 32 days
- Adjuvant arthritis duration (adjuvant arthritis [3]; [4]): 20 days
- Adjuvant arthritis maximum clinical score (adjuvant arthritis [3]; [4]): 6
- Adjuvant arthritis duration (adjuvant arthritis [3]; [5]): 16 days
- Adjuvant arthritis maximum clinical score (adjuvant arthritis [3]; [5]): 4
- Adjuvant arthritis duration (adjuvant arthritis [3]; [6]): 15 days
- Adjuvant arthritis maximum clinical score (adjuvant arthritis [3]; [6]): 5
- Adjuvant arthritis duration (adjuvant arthritis [3]; [7]): 8 days
- Adjuvant arthritis maximum clinical score (adjuvant arthritis [3]; [7]): 2
- Adjuvant arthritis duration (adjuvant arthritis [3]; 0.04 mg s.c. once daily for 5 days from day 9, dose 0: >20): > 20 days
- Adjuvant arthritis maximum clinical score (adjuvant arthritis [3]; 0.04 mg s.c. once daily for 5 days from day 9, dose 0: 10): 10
- Inhibition of arthritis (adjuvant arthritis [3]; rat, in vivo): yes
- Arthritis score (day 60) (adjuvant arthritis [3]; rat, in vivo, sc): 0
